Test [1] has as its system primary PGC-1α/β KO myotubes. Kind of test: NMN with or without HIF stabilizing compounds in PGC-1α/β KO myotubes, qPCR of mitochondrially-encoded ETC genes. The class given is cell-based, mouse. The procedure: As a functional test of whether NMN reverses genome asynchrony by depleting cells of HIF-1α, primary PGC-1α/β KO myotubes were incubated with NMN in the presence and absence of the HIF stabilizing compounds DMOG and DFO. […] Primary myoblasts cells were isolated from WT, SIRT1 KO (Price et al., 2012) and PGC-1α/β KO (Zechner et al., 2010) mice as previously described (Price et al., 2012). WT and PGC-1α/β KO primary myoblasts were plated and allowed to differentiate into myotubes by replacing the media with low glucose DMEM supplemented with 2% horse serum (Sigma-Aldrich) for 4 days. After the differentiation the cells were infected with empty vector or flag-SIRT1 adenovirus as described before ([…] al., 2007). Media was replaced with fresh DMEM supplemented with 2% horse serum (Sigma-Aldrich) for an additional 48 hr and, after that the cells were harvested for the different assays as described. […] Quantitative RT-PCR reactions were performed using 1 μM of primers and LightCycler® 480 SYBR Green Master (Roche) on an LightCycler® 480 detection system (Roche). Calculations were performed by a comparative method (2-ΔCT) using 18S as an internal control. For mtDNA analysis, total DNA was extracted with DNeasy blood and tissue kit (Qiagen). mtDNA was amplified using primers specific for the mitochondrial cytochrome c oxidase subunit 2 (COX2) gene and normalized to genomic DNA by amplification of the ribosomal protein s18 (rps18) nuclear gene. Primers were designed using the IDT software (IDT) and the primer sequences can be found in Table 1.
(In qPCR the cycle at which signal appears reflects the starting amount.)

A further test relates to PGC-1α/β KO cells. Kind of test: Pyruvate supplementation of PGC-1α/β KO cells with or without DMOG, mitochondrial-encoded gene expression. It is filed as cell-based, mouse. As to conditions: DMOG added to pyruvate-treated cells. An excerpt: FIGS. 21A-21N provide additional data related to the content of FIG. 14. FIG. 21A depicts HIF-1α target genes (PGK-1, Glut1, PDK1 and Vegfa) expression in gastrocnemius of WT and SIRT1 KO mice. Relative expression values were normalized to WT mice (n=5). FIG. 21B depicts hypoxia response element activity in primary myoblasts isolated from WT and SIRT1 KO mice and treated with or without DMOG. Relative luciferase activity was normalized to WT cells (n=6, *p<0.05 versus WT). FIG. 21C depicts a representative immunoblot of HIF-1a and Tubulin in PGC-1α/β KO myotubes treated with adenovirus overexpressing SIRT1 or empty vector as well as treatment with DMSO or with HIF stabilizing compound DMOG. FIG. 21D depicts NAD+/NADH ration measured in primary WT myoblasts treated with either 10 mM pyruvate, 10 mM lactate or vehicle for 24 h (n=4). […] FIG. 21J depicts mitochondrial DNA content analyzed by qPCR in control, HIF-1α DPA or HIF-2α DPA C2C12 cells treated with adenovirus overexpressing SIRT1 or empty vector. […] FIG. 21K depicts ARNT mRNA analyzed by qPCR in C2C12 cells infected with ARNT or nontargeting shRNA. […] FIG. 21L depicts mitochondrial DNA content analyzed by qPCR in C2C12 cells infected with ARNT or nontargeting shRNA. […] FIG. 21M depicts ND1, Cytb, COX1 and ATP6 mRNA analyzed by qPCR in C2C12 cells infected with ARNT or nontargeting shRNA. […] Values are expressed as mean±SEM. […]

With `COC(=O)CNC(=O)C(=O)OC` [DMOG, dimethyloxaloylglycine], the “effect on NMN-induced expression of mitochondrially-encoded ETC genes” value in test [1] (HIF stabilizing compound added to NMN-treated cells, 1 mM DMOG or 10 μM DFO, 12 hours) is “completely abolished”. The “effect on NAD+ mediated increases in mitochondrial-encoded genes” value in the test with PGC-1α/β KO cells is given as “inhibited”.
Turning to `NC(=O)c1ccc[n+]([C@@H]2O[C@H](COP(=O)([O-])O)[C@@H](O)[C@H]2O)c1` [NMN, nicotinamide mononucleotide], in test [1] (NMN alone, versus PBS), the “expression of mitochondrially-encoded ETC genes (ND1, CYTB, COX1, ATP6)” value is “induced expression”.

Source of the values: patent publication US20200291100A1, “TREATMENT OF AGE-RELATED AND MITOCHONDRIAL DISEASES BY INHIBITION OF HIF-1 ALPHA FUNCTION” (President and Fellows of Harvard College, priority 2012, published 2020).
